{
  "source": "patent US6329155A",
  "about": "“Methods of identifying agents which regulate release of amyloid precursor protein” (Massachusetts Institute of Technology, priority 1994, dated 2001)",
  "key": {"[1]": {"system": "mAChR-transfected 293 cell lines", "experiment": "APP processing in mAChR-transfected 293 cell lines, subtype not stated (Western blot)", "assay_type": "cell-based, human"}, "[2]": {"system": "serotonin receptor subtype 5HT2", "experiment": "APP derivative release by 3T3 fibroblasts transfected with serotonin receptor subtype 5HT2", "assay_type": "cell-based", "conditions": "3T3 fibroblasts transfected with 5HT2; serum-deprived 24 hours"}, "human m4 mAChR": {"system": "human m4 mAChR", "experiment": "APP release by human 293 cells transfected with m4 mAChR", "assay_type": "cell-based", "conditions": "carbachol"}, "wild-type 293 cells": {"system": "wild-type 293 cells", "experiment": "APP release by wild-type (nontransfected) human 293 cells", "assay_type": "cell-based", "conditions": "wild-type cell lines; carbachol"}, "human m2 mAChR": {"system": "human m2 mAChR", "experiment": "APP release by human 293 cells transfected with m2 mAChR", "assay_type": "cell-based", "conditions": "carbachol"}, "human m1 mAChR": {"biological_target": "T1, human m1 mAChR (Homo sapiens, UniProt P11229)", "T1 sequence (P11229 1-460)": "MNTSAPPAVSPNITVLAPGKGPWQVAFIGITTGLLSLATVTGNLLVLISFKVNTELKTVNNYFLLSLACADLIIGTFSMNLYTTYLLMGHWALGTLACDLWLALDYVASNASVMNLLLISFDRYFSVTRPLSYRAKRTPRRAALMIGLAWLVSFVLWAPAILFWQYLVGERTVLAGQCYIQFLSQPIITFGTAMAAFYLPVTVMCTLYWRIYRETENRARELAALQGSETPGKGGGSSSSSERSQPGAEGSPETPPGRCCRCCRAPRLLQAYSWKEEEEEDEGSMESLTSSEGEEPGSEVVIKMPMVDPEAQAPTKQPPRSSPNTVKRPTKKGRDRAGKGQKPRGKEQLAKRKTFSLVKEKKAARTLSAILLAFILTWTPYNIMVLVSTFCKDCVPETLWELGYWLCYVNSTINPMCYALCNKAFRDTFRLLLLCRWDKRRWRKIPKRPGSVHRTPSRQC"}, "human m3 mAChR": {"biological_target": "T2, human m3 mAChR (Homo sapiens, UniProt P20309)", "T2 construct": "expressed in transfected cells; m3 200,000 receptors per cell", "T2 sequence (P20309 whole entry)": "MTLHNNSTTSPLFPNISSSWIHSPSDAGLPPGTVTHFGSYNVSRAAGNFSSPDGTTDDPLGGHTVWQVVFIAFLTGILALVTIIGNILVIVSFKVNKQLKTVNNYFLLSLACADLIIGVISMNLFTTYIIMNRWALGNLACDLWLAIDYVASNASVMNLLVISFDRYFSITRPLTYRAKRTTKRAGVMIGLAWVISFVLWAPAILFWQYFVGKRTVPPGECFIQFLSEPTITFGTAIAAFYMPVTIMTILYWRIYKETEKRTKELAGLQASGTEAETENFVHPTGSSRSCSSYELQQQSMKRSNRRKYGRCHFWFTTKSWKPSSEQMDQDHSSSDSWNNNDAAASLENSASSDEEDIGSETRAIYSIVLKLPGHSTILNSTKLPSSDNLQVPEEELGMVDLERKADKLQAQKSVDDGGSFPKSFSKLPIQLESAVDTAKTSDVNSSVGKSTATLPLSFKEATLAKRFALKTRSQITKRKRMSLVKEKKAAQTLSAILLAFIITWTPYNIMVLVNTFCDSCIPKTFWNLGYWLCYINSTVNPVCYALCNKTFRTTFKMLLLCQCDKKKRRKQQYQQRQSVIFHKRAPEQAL", "assay_type": "cell-based"}, "[3]": {"biological_target": "T3, PC-12 bradykinin receptors (Rattus norvegicus, UniProt P25023)", "T3 construct": "functional APPs secretion", "T3 sequence (P25023 1-396)": "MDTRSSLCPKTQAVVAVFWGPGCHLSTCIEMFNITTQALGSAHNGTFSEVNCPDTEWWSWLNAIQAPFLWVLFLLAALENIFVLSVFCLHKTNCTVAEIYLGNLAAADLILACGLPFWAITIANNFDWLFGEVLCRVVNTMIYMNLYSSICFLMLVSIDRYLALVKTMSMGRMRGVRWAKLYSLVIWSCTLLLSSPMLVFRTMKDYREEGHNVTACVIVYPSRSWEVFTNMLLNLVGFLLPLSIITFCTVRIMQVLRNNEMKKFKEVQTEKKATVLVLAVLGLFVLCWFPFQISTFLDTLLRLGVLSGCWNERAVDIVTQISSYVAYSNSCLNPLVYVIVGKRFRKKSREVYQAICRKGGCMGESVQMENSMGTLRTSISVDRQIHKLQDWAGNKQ", "experiment": "Secretion of soluble APP (APPs) by PC-12 cells via bradykinin receptors", "assay_type": "cell-based", "description": "PC-12 cell lines were obtained from American Type Culture Collection (CRL 1721) and grown in Dulbecco's modified Eagle's medium supplemented with 10% horse serum and 2.5% fetal bovine serum at 37° C. under a 5% carbon dioxide atmosphere. Cells were plated on collagen-coated culture dishes. For differentiation into the neuronal phenotype, 50 ng/ml nerve growth factor was added 24 hours after plating and differentiation was verified after three days by neurite outgrowth. Experiments were conducted with subconfluent monolayers approximately five days after plating.\nMedia were removed from culture dishes; cells were washed twice with serum-free N2 medium and experiments were done at 37° C. on a hot plate in serum-free N2 medium. Media were removed after incubation periods, desalted on sephadex G-25 columns with water as eluent, lyophilized and resuspended in 100 μl sample butter, and boiled for five minutes. Experiments were carried out in triplicate culture dishes and were repeated three to six times.\nCells were treated with 10 μM bradykinin or with vehicle (control) and secretion of APP was assessed over time, using Western blot and densitometry. […] Membranes were blocked, and probed with monoclonal antibody 22C11. Membranes were washed, and incubated with anti-mouse IgG conjugated to horseradish peroxidase. Bands were visualized with enhanced chemiluminescence using pre-flashed (linear) x-ray films. For densitometric analysis, bands were scanned with a Pharmacia LKB UltroScan XL laser densitometer set at 40 μm vertical interval size and […] horizontal slit width. Data were normalized to vehicle-treated controls which were always run within the same blots."}, "[4]": {"conditions": "stimulation with carbachol, Western blot"}},
  "note": "Ends that are not written are not given here.",
  "data": [
    {"compound": "CNc1ccc2oc(C[C@H]3O[C@@]4(CC[C@H]3C)O[C@H]([C@H](C)C(=O)c3ccc[nH]3)[C@H](C)C[C@H]4C)nc2c1C(=O)O", "note": "[A23187]", "values": [
      {"measurement": "stimulation of basal APP release by calcium ionophore alone", "setting": "[1]; 10 μm ionophore, cell line not stated in text (FIG. 1B)", "value": "failure"}
    ]},
    {"compound": "NCCc1c[nH]c2ccc(O)cc12", "note": "[Serotonin]", "values": [
      {"measurement": "release of N-terminal non-amyloidogenic APP derivatives", "setting": "[2]", "value": "increases release"}
    ]},
    {"compound": "C[N+](C)(C)CCOC(N)=O", "note": "[carbachol]", "values": [
      {"measurement": "basal release of APP fragments, effect of agonist", "setting": "human m4 mAChR", "value": "not stimulated"},
      {"measurement": "basal release of APP fragments, effect of agonist", "setting": "wild-type 293 cells", "value": "not stimulated"},
      {"measurement": "128 kD APP derivative secreted into the culture medium", "setting": "[1]; [4]", "value": "increase"},
      {"measurement": "abundance of cell-associated 115 kD APP", "setting": "[1]; [4]", "value": "remained unaffected"},
      {"measurement": "abundance of cell-associated 141 kD APP", "setting": "[1]; [4]", "value": "decreased"},
      {"measurement": "basal release of APP fragments, effect of agonist", "setting": "human m2 mAChR", "value": "not stimulated"}
    ]},
    {"compound": "CN[C@@H]1C[C@H]2O[C@@](C)([C@@H]1OC)n1c3ccccc3c3c4c(c5c6ccccc6n2c5c31)C(=O)NC4", "note": "[staurosporine]", "values": [
      {"measurement": "effect on receptor-activated (carbachol-induced) APP release", "setting": "human m1 mAChR", "value": "inhibited"},
      {"measurement": "effect on receptor-activated (carbachol-induced) APP release", "setting": "human m3 mAChR", "value": "inhibited"},
      {"measurement": "effect on bradykinin-induced APPS secretion", "setting": "[3]; PC-12 cells, added with bradykinin", "value": "inhibited"}
    ]},
    {"compound": "RPPGFSPFR [bradykinin]", "values": [
      {"measurement": "secretion of soluble N-terminal APP derivatives (APPS) into the medium", "setting": "[3]; NGF-differentiated PC-12 cells, 10 μM bradykinin vs vehicle", "value": "increases"},
      {"measurement": "APPs secretion in undifferentiated PC-12 cells", "setting": "[3]; PC-12 cells without nerve growth factor", "value": "stimulates"}
    ]}
  ]
}
